The source of these data is patent publication US8614333B2, “Acenaphtho heterocyclic compound and application thereof” (Dalian University of Technology, priority 2010, dated 2013).

One test deals with GST-Bcl-2 protein (Homo sapiens, UniProt P10415). Nature of the test: Fluorescence polarization assay, competition with FAM-Bid peptide for Bcl-2. The note with it: GST-Bcl-2 40 nM, FAM-Bid 5 nM, 4 hours of incubation, read-out: Bcl-2 binding constants. As for the experimental part:
(§1) A Bid BH3 peptide (amino acids: 79-99: […]) having 21 amino acids was synthesized and marked with 6-carboxyfluorescein N-succinimidyl ester (FAM) as fluorescent tag (FAM-Bid) at the N-terminal. The reaction system used in the competitive binding experiment was GST-Bcl-2 protein (40 nM) or Mcl-1 protein, which was dissolved in the reaction buffer (100 mM K3PO4, pH 7.5; 100 μg/ml bovine γ albumin; 0.02% sodium azide) together with FAM-Bid polypeptide (5 nM). In a 96-well plate, 100 µL of the reaction system was added into each well. Then 1 μL different concentration of compound 13 mother solution to be detected dissolved in DMSO was added there into until the final concentration met the experimental design requirements. Meanwhile, two control groups were established, one with the reaction system only containing Bcl-2 or Mcl-1 and FAM-Bid (equivalent to 0% inhibition rate), the other with the reaction system only containing FAM-Bid peptide. After 4 hours of incubation, the 96-well plate was detected by enzyme-labelled meter. The fluorescent polarization value (mP) was tested at […]. Ki value was deduced according to calculation formula.
(§2) The BH3 analogous degrees of other 12 compounds were detected by using the experimental method as described above.

The target of the next test is Mcl-1 protein (Homo sapiens, UniProt Q07820). In words: Fluorescence polarization assay, competition with FAM-Bid peptide for Mcl-1. The conditions noted are these: FAM-Bid 5 nM, 4 hours of incubation, read-out: Mcl-1 binding constants. The method, then:
as §1, §2

Test [1] has as its target T1, interaction between Bcl-2 and Bax (Homo sapiens, UniProt P10415).
T1 construct: expressed in transfected cells; host or cells: Hela cells
Nature of the test: Intracellular FRET, Bcl-2-CFP/Bax-YFP in Hela cells. The format is cell-based. The note with it: for Time (time period after which the interaction between Bcl-2 and Bax was interfered): at the concentration given. The method in brief: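 Hela cells transfected with Bcl-2-CFP and/or Bax-YFP plasmids, then treated with compound in DMSO at 2, 5, 10 and 15 μM for 24 h, or at 40 μM for 3, 6 and 24 h. FRET taken as the 527/475 nm emission ratio at 433 nm excitation, with singly transfected controls set to 1.0. Viability checked by MTT.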

Test [2] deals with BAX shift towards the chondriosome. Nature of the test: Co-localization between Bax protein and chondriosome, Bax-YFP in MCF-7 cells. The format is cell-based. The conditions noted are these: for Doses (concentration at which the compound drove the BAX to shift towards the chondriosome): Bax-YFP/Mito Tracker Red; for Time (time period after which BAX shifted towards the chondriosome): at the concentration given. The method in brief:
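MCF-7 cells transfected with Bax-YFP plasmid; 24 h later treated with 10 μM compound for 6 h, then stained 10 min with 50 nM MitoTracker Red CMXRos. Dual-channel laser confocal imaging; Bax mitochondrial localization read as green/red overlap (orange).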

The subject of the next test is MCF-7 cells. Nature of the test: Cytotoxicity by MTT, cells without plasmid transfection. The note with it: Homo sapiens, MCF7; MCF-7, MTT, 48 hours; read-out: IC50 value in untransfected cells. The test is classed as cell-based. In short, it runs like this:
(§3)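 MCF-7 cells transfected with 3 μg BAX/BAK interfering plasmid by calcium phosphate, knockdown checked by Western; untransfected cells run in parallel. Cells treated with a compound concentration gradient for 48 hours; viability by MTT, IC50 derived.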

In test [3] the test system is MCF-7 cells transfected with BAX/BAK interfering plasmid. In words: Cytotoxicity by MTT, cells transfected with BAX/BAK interfering plasmid. The test is classed as cell-based. The note with it: Homo sapiens, MCF7; MCF-7 with BAX/BAK interfering plasmid, MTT, 48 hours. In short, it runs like this: as §3
The next test concerns Bcl-2. Nature of the test: Western blotting, semiquantitative analysis of Bcl-2 protein bands. The conditions noted are these: control = 1, tumor cells. The test is classed as cell-based. The method, then: (§4) The interest protein was detected by the corresponding antibody. The expression of the interest protein in the cells was detected by horseradish peroxidase-labeled secondary antibodies in combination with ECL coloration method. […] The concentration of the protein bands in the Western images were carried out semiquantitative analysis and normalization treatment with KODAK Gel Logic 1500 imaging system software.

The next test relates to Mcl-1. Nature of the test: Western blotting, semiquantitative analysis of Mcl-1 protein bands. The conditions noted are these: control = 1, tumor cells. The format is cell-based. As for the experimental part: as §4

Chain of Mcl-1 protein (Q07820 whole entry, species assumed): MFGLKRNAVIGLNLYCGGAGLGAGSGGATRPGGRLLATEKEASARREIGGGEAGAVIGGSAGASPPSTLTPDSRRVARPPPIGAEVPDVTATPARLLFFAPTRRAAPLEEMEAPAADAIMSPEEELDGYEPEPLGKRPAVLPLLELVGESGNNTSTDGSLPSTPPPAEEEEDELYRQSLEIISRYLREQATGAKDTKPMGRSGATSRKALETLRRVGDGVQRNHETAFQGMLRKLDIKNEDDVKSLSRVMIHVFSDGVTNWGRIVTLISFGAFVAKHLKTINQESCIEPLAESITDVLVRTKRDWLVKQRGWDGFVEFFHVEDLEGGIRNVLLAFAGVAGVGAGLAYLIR
T1 sequence (P10415 whole entry): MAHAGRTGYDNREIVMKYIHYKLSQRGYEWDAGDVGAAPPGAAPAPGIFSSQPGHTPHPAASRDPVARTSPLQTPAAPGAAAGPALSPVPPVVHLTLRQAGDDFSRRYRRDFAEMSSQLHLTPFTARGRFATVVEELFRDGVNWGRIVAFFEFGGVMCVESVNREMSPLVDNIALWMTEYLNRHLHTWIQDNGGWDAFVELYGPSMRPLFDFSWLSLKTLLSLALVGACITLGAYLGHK
Chain of GST-Bcl-2 protein (P10415 whole entry): as above

As for `CC(C)c1ccc(Oc2ccc3c4c(cccc24)C2=NC(=O)C(C#N)=C23)cc1` [Compound 17, 3-(4-Isopropyl-phenoxy)-8-oxo-8H-acenaphtho[1,2-b]pyrrole-9-carbonitrile], the Ki on GST-Bcl-2 protein turned out to be 20 nM; at Mcl-1 protein, 85 nM. Besides, in test [1], the “Doses (concentration at which the compound interfered with the interaction between Bcl-2 and Bax)” value turned out to be 0.1 µM. In addition, the “Time (time period after which the interaction between Bcl-2 and Bax was interfered)” value in test [1] is 2 h. Moreover, the “Doses (concentration at which the compound drove the BAX to shift towards the chondriosome)” value in test [2] was found to be 1.0 µM. Besides, in test [2], the “Time (time period after which BAX shifted towards the chondriosome)” value worked out at 1 h. Also, the IC50 with MCF-7 cells is 2000 nM; in test [3], greater than 50000 nM. Besides, the “concentration of the protein bands (semiquantitative, normalized), Bcl-2” value in the test on Bcl-2 (6 h) turned out to be 0.99; with Bcl-2 (12 h), 0.99; with Bcl-2 (18 h) it was 0.58; in the test with Bcl-2 (24 h) it was 0.11. Besides, the “concentration of the protein bands (semiquantitative, normalized), Mcl-1” value was found to be 0.65 in the test with Mcl-1 (2 h) and 0.37 in the test on Mcl-1 (6 h).
Regarding `CCC(C)c1ccc(Sc2ccc3c4c(cccc24)C2=NC(=O)C(C#N)=C23)cc1` (stereo not shown) [Compound 21, 3-(4-sec-Butyl-phenylsulfanyl)-8-oxo-8H-acenaphtho[1,2-b]pyrrole-9-carbonitrile], the values for the Ki on GST-Bcl-2 protein and on Mcl-1 protein were 12 nM and 65 nM, respectively. Further, the “Doses (concentration at which the compound interfered with the interaction between Bcl-2 and Bax)” value in test [1] amounted to 0.2 µM. The “Time (time period after which the interaction between Bcl-2 and Bax was interfered)” value in test [1] was found to be 2 h. In test [2], the “Doses (concentration at which the compound drove the BAX to shift towards the chondriosome)” value worked out at 2.0 µM. Besides, the “Time (time period after which BAX shifted towards the chondriosome)” value in test [2] was found to be 2 h. In addition, the IC50 with MCF-7 cells was 1500 nM; in test [3], greater than 50000 nM. Besides, the “concentration of the protein bands (semiquantitative, normalized), Bcl-2” value with Bcl-2 (6 h) is given as 0.99; with Bcl-2 (12 h) it was 0.99; with Bcl-2 (18 h), 0.49; in the test with Bcl-2 (24 h) it was 0.18. Besides, the figures for the “concentration of the protein bands (semiquantitative, normalized), Mcl-1” value in the test with Mcl-1 (2 h) and with Mcl-1 (6 h) were 0.59 and 0.28, respectively.
As for `CC(C)Cc1ccc(Sc2ccc3c4c(cccc24)C2=C(C#N)C(=O)N=C23)cc1` [Compound 19, 4-(4-Isobutyl-phenylsulfanyl)-8-oxo-8H-acenaphtho[1,2-b]pyrrole-9-carbonitrile], the Ki at GST-Bcl-2 protein worked out at 23 nM; on Mcl-1 protein, 85 nM. Also, the “Doses (concentration at which the compound interfered with the interaction between Bcl-2 and Bax)” value in test [1] was 0.3 µM. Also, the “Time (time period after which the interaction between Bcl-2 and Bax was interfered)” value in test [1] turned out to be 3 h. Moreover, in test [2], the “Doses (concentration at which the compound drove the BAX to shift towards the chondriosome)” value was determined as 3.0 µM. Also, the “Time (time period after which BAX shifted towards the chondriosome)” value in test [2] was 3 h. Also, the values for the 50% inhibitory concentration (IC50) (with MCF-7 cells; in test [3]) were 2200 nM and greater than 50000 nM, respectively.
Turning to `CCCCCCOc1ccc2c3c(cccc13)C1=NC(=O)C(C(=O)O)=C12` [Compound 26, 3-Hexyloxy-8-oxo-8H-acenaphtho[1,2-b]pyrrole-9-carboxylic acid], the Ki at GST-Bcl-2 protein amounted to 105 nM; on Mcl-1 protein, 85 nM. Further, the “Doses (concentration at which the compound interfered with the interaction between Bcl-2 and Bax)” value in test [1] worked out at 0.5 µM. In addition, the “Time (time period after which the interaction between Bcl-2 and Bax was interfered)” value in test [1] came to 5 h. For the same compound, in test [2], the “Doses (concentration at which the compound drove the BAX to shift towards the chondriosome)” value stood at 5.0 µM. Also, the “Time (time period after which BAX shifted towards the chondriosome)” value in test [2] worked out at 5 h. The IC50 in the test with MCF-7 cells is 6200 nM; in test [3], greater than 50000 nM.
`CC(C)c1ccc(Sc2ccc3c4c(cccc24)C2=NC(=O)C(C#N)=C23)cc1` [Compound 20, 3-(4-Isopropyl-phenylsulfanyl)-8-oxo-8H-acenaphtho[1,2-b]pyrrole-9-carbonitrile]: the Ki at GST-Bcl-2 protein amounted to 23 nM; on Mcl-1 protein it was 57 nM. For the same compound, the “Doses (concentration at which the compound interfered with the interaction between Bcl-2 and Bax)” value in test [1] is 0.2 µM. In test [1], the “Time (time period after which the interaction between Bcl-2 and Bax was interfered)” value amounted to 2 h. Besides, the “Doses (concentration at which the compound drove the BAX to shift towards the chondriosome)” value in test [2] was determined as 5.0 µM. In addition, the “Time (time period after which BAX shifted towards the chondriosome)” value in test [2] is on record as 3 h. In addition, the IC50 in the test on MCF-7 cells was 2100 nM; in test [3] it was greater than 50000 nM. The “concentration of the protein bands (semiquantitative, normalized), Bcl-2” value in the test with Bcl-2 (6 h) is reported as 0.99; in the test with Bcl-2 (12 h), 0.99; in the test on Bcl-2 (18 h) it was 0.50; in the test on Bcl-2 (24 h), 0.23. In addition, the results for the “concentration of the protein bands (semiquantitative, normalized), Mcl-1” value in the test on Mcl-1 (2 h) and in the test with Mcl-1 (6 h) were 0.60 and 0.29, respectively.
Regarding `N#CC1=C2C(=NC1=O)c1ccc(C(=O)c3ccc(CN)cc3)c3cccc2c13` [Compound 25, 4-(4-Aminomethyl-benzoyl)-8-oxo-8H-acenaphtho[1,2-b]pyrrole-9-carbonitrile], the Ki on GST-Bcl-2 protein came out at 115 nM. For the same compound, the Ki on Mcl-1 protein came out at 135 nM. In test [1], the “Doses (concentration at which the compound interfered with the interaction between Bcl-2 and Bax)” value was 0.6 µM; the “Time (time period after which the interaction between Bcl-2 and Bax was interfered)” value is given as 4 h. Moreover, in test [2], the “Doses (concentration at which the compound drove the BAX to shift towards the chondriosome)” value is 6.0 µM and the “Time (time period after which BAX shifted towards the chondriosome)” value was found to be 4 h. For the same compound, in the test on MCF-7 cells, the half-inhibitory concentration (IC50) came to 6500 nM. Also, in test [3], the concentration for half-maximal inhibition (IC50) is greater than 50000 nM.
With `CC(C)c1ccc(Sc2ccc3cccc4c3c2C2=NC(=O)C(C#N)=C24)cc1` [Compound 22, 6-(4-Isopropyl-phenylsulfanyl)-8-oxo-8H-acenaphtho[1,2-b]pyrrole-9-carbonitrile], the Ki on GST-Bcl-2 protein turned out to be 9 nM; on Mcl-1 protein, 85 nM. Also, the “Doses (concentration at which the compound interfered with the interaction between Bcl-2 and Bax)” value in test [1] was 0.5 µM. In addition, the “Time (time period after which the interaction between Bcl-2 and Bax was interfered)” value in test [1] was 2 h. The “Doses (concentration at which the compound drove the BAX to shift towards the chondriosome)” value in test [2] is 5.0 µM. Moreover, the “Time (time period after which BAX shifted towards the chondriosome)” value in test [2] came to 3 h. Moreover, the IC50 with MCF-7 cells was 1200 nM; in test [3] it was greater than 50000 nM. Moreover, the “concentration of the protein bands (semiquantitative, normalized), Bcl-2” value with Bcl-2 (6 h) stood at 0.99; with Bcl-2 (12 h) it was 0.99; in the test with Bcl-2 (18 h) it was 0.60; in the test on Bcl-2 (24 h) it was 0.37. Moreover, the “concentration of the protein bands (semiquantitative, normalized), Mcl-1” value in the test with Mcl-1 (2 h) is 0.68; with Mcl-1 (6 h) it was 0.49.
Take `CC(C)Cc1ccc(Oc2ccc3c4c(cccc24)C2=C(C#N)C(=O)N=C23)cc1` [Compound 16, 4-(4-Isobutyl-phenoxy)-8-oxo-8H-acenaphtho[1,2-b]pyrrole-9-carbonitrile]: the Ki at GST-Bcl-2 protein was found to be 210 nM; on Mcl-1 protein it was 56 nM. For the same compound, the “Doses (concentration at which the compound interfered with the interaction between Bcl-2 and Bax)” value in test [1] stood at 0.5 µM. Moreover, the “Time (time period after which the interaction between Bcl-2 and Bax was interfered)” value in test [1] was 3 h. Moreover, the “Doses (concentration at which the compound drove the BAX to shift towards the chondriosome)” value in test [2] was found to be 4.0 µM. In addition, the “Time (time period after which BAX shifted towards the chondriosome)” value in test [2] is given as 3 h. The figures for the half-maximal inhibitory concentration (IC50) (in the test on MCF-7 cells; in test [3]) were 8500 nM and greater than 50000 nM, respectively.
